Data taken from patent US8614201B2 (Janssen Pharmaceutica NV, priority 2009, dated 2013).

Molecular target: Human TRPA1 (Homo sapiens, UniProt O75762)
Test: Assay 1: In vitro cellular testing of TRPA1 modulation (CHO-TREx, Fluo-3 calcium fluorescence, AITC agonist)
Type: cell-based
Design: expressed in transfected cells; host or cells: CHO-TREx cells (Invitrogen), vector pcDNA4/TO
Conditions: CHO-TREx cells expressing human TRPA1; Fluo-3 fluorescence (FLIPR/Tetra); agonist 15 μM allyl isothiocyanate (AITC); 30 minute antagonist incubation
In short: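 Antagonist potency is the 50% reduction of the AITC (15 μM) calcium response, Hill-fitted against no-antagonist and 10 μM ruthenium red controls. Fluo-3-loaded (4 μM) CHO-TREx cells with tetracycline-inducible human TRPA1 got compound in HEPES saline pH 7.4 for 30 min, usually from 10 μM in three-fold dilutions.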

Sequence of Human TRPA1 (O75762 whole entry): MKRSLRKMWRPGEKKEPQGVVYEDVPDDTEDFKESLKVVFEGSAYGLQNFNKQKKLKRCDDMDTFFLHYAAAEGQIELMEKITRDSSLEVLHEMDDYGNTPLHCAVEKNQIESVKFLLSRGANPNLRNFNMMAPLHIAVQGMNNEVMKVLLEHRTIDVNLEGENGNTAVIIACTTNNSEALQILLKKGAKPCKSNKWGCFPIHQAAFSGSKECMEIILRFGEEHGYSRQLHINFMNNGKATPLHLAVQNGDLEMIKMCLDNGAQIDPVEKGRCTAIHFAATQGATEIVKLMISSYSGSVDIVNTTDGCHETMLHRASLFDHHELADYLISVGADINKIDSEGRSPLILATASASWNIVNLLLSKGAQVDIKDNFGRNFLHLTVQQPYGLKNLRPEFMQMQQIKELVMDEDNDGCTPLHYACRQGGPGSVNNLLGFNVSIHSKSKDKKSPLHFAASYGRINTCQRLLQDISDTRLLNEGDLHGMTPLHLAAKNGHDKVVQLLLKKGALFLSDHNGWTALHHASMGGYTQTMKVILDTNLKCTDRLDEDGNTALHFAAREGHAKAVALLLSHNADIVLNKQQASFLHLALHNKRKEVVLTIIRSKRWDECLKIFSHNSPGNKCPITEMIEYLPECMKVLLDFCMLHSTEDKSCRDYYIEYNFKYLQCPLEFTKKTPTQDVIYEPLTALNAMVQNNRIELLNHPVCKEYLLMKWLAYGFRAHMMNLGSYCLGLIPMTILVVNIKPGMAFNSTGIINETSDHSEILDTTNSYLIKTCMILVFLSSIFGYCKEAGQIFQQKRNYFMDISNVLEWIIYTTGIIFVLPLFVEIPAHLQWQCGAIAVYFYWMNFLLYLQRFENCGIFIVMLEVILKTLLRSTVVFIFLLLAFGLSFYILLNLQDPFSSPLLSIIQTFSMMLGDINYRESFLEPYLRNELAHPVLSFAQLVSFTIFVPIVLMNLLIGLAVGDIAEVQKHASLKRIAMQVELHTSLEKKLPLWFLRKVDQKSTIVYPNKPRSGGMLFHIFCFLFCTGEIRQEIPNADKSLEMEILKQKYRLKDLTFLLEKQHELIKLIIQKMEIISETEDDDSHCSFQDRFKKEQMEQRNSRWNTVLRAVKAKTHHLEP

SMILES | IC50 [nM]
CN(C)c1cc(CNC(=O)[C@@H]2C=CCN2S(=O)(=O)c2ccc(Cl)s2)cc(-c2ccc(C(F)(F)F)cc2)n1 [Example 334, (2S)-1-[(5-Chlorothiophen-2-yl)sulfonyl]-N-({2-(dimethylamino)-6-[4-(trifluoromethyl)phenyl]pyridin-4-yl}methyl)-2,5-dihydro-1H-pyrrole-2-carboxamide] | 2630
CNc1cc(CNC(=O)[C@@H]2CCCN2S(=O)(=O)c2ccc(Cl)s2)cc(-c2ccc(C(F)(F)F)cc2)n1 [Example 335, 1-[(5-Chlorothiophen-2-yl)sulfonyl]-N-({2-(methylamino)-6-[4-(trifluoromethyl)phenyl]pyridin-4-yl}methyl)-L-prolinamide] | 179
CC1CCCN1c1cc(CNC(=O)[C@@H]2CCCN2S(=O)(=O)c2ccc(F)cc2)cc(-c2ccc(C(F)(F)F)cc2)n1 (stereo partly drawn) [Example 336, 1-[(4-Fluorophenyl)sulfonyl]-N-({2-(2-methylpyrrolidin-1-yl)-6-[4-(trifluoromethyl)phenyl]pyridin-4-yl}methyl)-L-prolinamide] | 113
CNc1cc(CNC(=O)[C@@H]2CCCN2S(=O)(=O)c2ccc(F)cc2)cc(-c2ccc(C(F)(F)F)cc2)n1 [Example 337, 1-[(4-Fluorophenyl)sulfonyl]-N-({2-(methylamino)-6-[4-(trifluoromethyl)phenyl]pyridin-4-yl}methyl)-L-prolinamide] | 1010
CN(C)c1cc(CNC(=O)[C@@H]2C=CCN2S(=O)(=O)c2ccc(F)cc2)cc(-c2ccc(C(F)(F)F)cc2)n1 [Example 338, (2S)—N-({2-(Dimethylamino)-6-[4-(trifluoromethyl)phenyl]pyridin-4-yl}methyl)-1-[(4-fluorophenyl)sulfonyl]-2,5-dihydro-1H-pyrrole-2-carboxamide] | 382
O=C(NCc1cc(-c2ccc(C(F)(F)F)cc2)nc(N2CCN(Cc3ccccn3)CC2)c1)[C@@H]1CCCN1S(=O)(=O)c1ccc(Cl)s1 [Example 339, 1-[(5-Chlorothiophen-2-yl)sulfonyl]-N-({2-[4-(pyridin-2-ylmethyl)piperazin-1-yl]-6-[4-(trifluoromethyl)phenyl]pyridin-4-yl}methyl)-L-prolinamide] | 251
O=C(NCc1cc(-c2ccc(C(F)(F)F)cc2)nc(N2CCN(Cc3ccncc3)CC2)c1)[C@@H]1C=CCN1S(=O)(=O)c1ccc(Cl)s1 [Example 340, (2S)-1-[(5-Chlorothiophen-2-yl)sulfonyl]-N-({2-[4-(pyridin-4-ylmethyl)piperazin-1-yl]-6-[4-(trifluoromethyl)phenyl]pyridin-4-yl}methyl)-2,5-dihydro-1H-pyrrole-2-carboxamide] | 210
O=C(NCc1cc(-c2ccc(C(F)(F)F)cc2)nc(N2CCN(Cc3cccnc3)CC2)c1)[C@@H]1CCCN1S(=O)(=O)c1ccc(Cl)s1 [Example 341, 1-[(5-Chlorothiophen-2-yl)sulfonyl]-N-({2-[4-(pyridin-3-ylmethyl)piperazin-1-yl]-6-[4-(trifluoromethyl)phenyl]pyridin-4-yl}methyl)-L-prolinamide] | 693
O=C(NCc1cc(-c2ccc(C(F)(F)F)cc2)nc(N2CCN(Cc3ccncc3)CC2)c1)[C@@H]1CCCN1S(=O)(=O)c1ccc(F)cc1 [Example 342, 1-[(4-Fluorophenyl)sulfonyl]-N-({2-[4-(pyridin-4-ylmethyl)piperazin-1-yl]-6-[4-(trifluoromethyl)phenyl]pyridin-4-yl}methyl)-L-prolinamide] | 296
O=C(NCc1cc(NCc2ccncc2)nc(-c2ccc(C(F)(F)F)cc2)c1)[C@@H]1CC(F)(F)CN1S(=O)(=O)c1ccc(F)cc1 [Example 343, 4,4-Difluoro-1-[(4-fluorophenyl)sulfonyl]-N-({2-[(pyridin-4-ylmethyl)amino]-6-[4-(trifluoromethyl)phenyl]pyridin-4-yl}methyl)-L-prolinamide] | 1060
O=C(NCc1cc(NCc2ccncc2)nc(-c2ccc(C(F)(F)F)cc2)c1)[C@@H]1C=CCN1S(=O)(=O)c1ccc(F)cc1 [Example 344, (2S)-1-[(4-Fluorophenyl)sulfonyl]-N-({2-[(pyridin-4-ylmethyl)amino]-6-[4-(trifluoromethyl)phenyl]pyridin-4-yl}methyl)-2,5-dihydro-1H-pyrrole-2-carboxamide] | > 10000
O=C(NCc1cc(NCc2cccnc2)nc(-c2ccc(C(F)(F)F)cc2)c1)[C@@H]1C=CCN1S(=O)(=O)c1ccc(Cl)s1 [Example 345, (2S)-1-[(5-Chlorothiophen-2-yl)sulfonyl]-N-({2-[(pyridin-3-ylmethyl)amino]-6-[4-(trifluoromethyl)phenyl]pyridin-4-yl}methyl)-2,5-dihydro-1H-pyrrole-2-carboxamide] | 2500
O=C(NCc1cc(NCc2cccnc2)nc(-c2ccc(C(F)(F)F)cc2)c1)[C@@H]1C=CCN1S(=O)(=O)c1ccc(F)cc1 [Example 346, (2S)-1-[(4-Fluorophenyl)sulfonyl]-N-({2-[(pyridin-3-ylmethyl)amino]-6-[4-(trifluoromethyl)phenyl]pyridin-4-yl}methyl)-2,5-dihydro-1H-pyrrole-2-carboxamide] | > 10000
O=C(NCc1cc(NCc2ccccn2)nc(-c2ccc(C(F)(F)F)cc2)c1)[C@@H]1CCCN1S(=O)(=O)c1ccc(Cl)s1 [Example 347, 1-[(5-Chlorothiophen-2-yl)sulfonyl]-N-({2-[(pyridin-2-ylmethyl)amino]-6-[4-(trifluoromethyl)phenyl]pyridin-4-yl}methyl)-L-prolinamide] | 518
O=C(NCc1cc(-c2ccc(C(F)(F)F)cc2)nc(N2CCN(Cc3ccccn3)CC2)c1)[C@@H]1CCCN1S(=O)(=O)c1ccc(F)cc1 [Example 348, 1-[(4-Fluorophenyl)sulfonyl]-N-({2-[4-(pyridin-2-ylmethyl)piperazin-1-yl]-6-[4-(trifluoromethyl)phenyl]pyridin-4-yl}methyl)-L-prolinamide] | 1630
CC(Nc1cc(CNC(=O)[C@@H]2CCCN2S(=O)(=O)c2ccc(F)cc2)cc(-c2ccc(C(F)(F)F)cc2)n1)c1cccnc1 (stereo partly drawn) [Example 349, 1-[(4-Fluorophenyl)sulfonyl]-N-({2-[(1-pyridin-3-ylethyl)amino]-6-[4-(trifluoromethyl)phenyl]pyridin-4-yl}methyl)-L-prolinamide] | 1690
CC(Nc1cc(CNC(=O)[C@@H]2C=CCN2S(=O)(=O)c2ccc(F)cc2)cc(-c2ccc(C(F)(F)F)cc2)n1)c1cccnc1 (stereo partly drawn) [Example 350, (2S)-1-[(4-Fluorophenyl)sulfonyl]-N-({2-[(1-pyridin-3-ylethyl)amino]-6-[4-(trifluoromethyl)phenyl]pyridin-4-yl}methyl)-2,5-dihydro-1H-pyrrole-2-carboxamide] | 7260
CC(Nc1cc(CNC(=O)[C@@H]2C=CCN2S(=O)(=O)c2ccc(Cl)s2)cc(-c2ccc(C(F)(F)F)cc2)n1)c1cccnc1 (stereo partly drawn) [Example 351, (2S)-1-[(5-Chlorothiophen-2-yl)sulfonyl]-N-({2-[(1-pyridin-3-ylethyl)amino]-6-[4-(trifluoromethyl)phenyl]pyridin-4-yl}methyl)-2,5-dihydro-1H-pyrrole-2-carboxamide] | > 10000
O=C(NCc1cc(NCc2ccccc2)nc(-c2ccc(C(F)(F)F)cc2)c1)[C@@H]1CC(F)(F)CN1S(=O)(=O)c1ccc(Cl)s1 [Example 352, N-({2-(Benzylamino)-6-[4-(trifluoromethyl)phenyl]pyridin-4-yl}methyl)-1-[(5-chlorothiophen-2-yl)sulfonyl]-4,4-difluoro-L-prolinamide] | 7090
O=C(NCc1cc(-c2ccc(C(F)(F)F)cc2)nc(N2CCN(Cc3ccccn3)CC2)c1)[C@@H]1C=CCN1S(=O)(=O)c1ccc(F)cc1 [Example 353, (2S)-1-[(4-Fluorophenyl)sulfonyl]-N-({2-[4-(pyridin-2-ylmethyl)piperazin-1-yl]-6-[4-(trifluoromethyl)phenyl]pyridin-4-yl}methyl)-2,5-dihydro-1H-pyrrole-2-carboxamide] | 2750
O=C(NCc1cc(-c2ccc(C(F)(F)F)cc2)nc(N2CCN(Cc3ccccn3)CC2)c1)[C@@H]1C=CCN1S(=O)(=O)c1ccc(Cl)s1 [Example 354, (2S)-1-[(5-Chlorothiophen-2-yl)sulfonyl]-N-({2-[4-(pyridin-2-ylmethyl)piperazin-1-yl]-6-[4-(trifluoromethyl)phenyl]pyridin-4-yl}methyl)-2,5-dihydro-1H-pyrrole-2-carboxamide] | 1070
O=C(NCc1cc(-c2ccc(C(F)(F)F)cc2)nc(N2CCN(Cc3cccnc3)CC2)c1)[C@@H]1C=CCN1S(=O)(=O)c1ccc(Cl)s1 [Example 355, (2S)-1-[(5-Chlorothiophen-2-yl)sulfonyl]-N-({2-[4-(pyridin-3-ylmethyl)piperazin-1-yl]-6-[4-(trifluoromethyl)phenyl]pyridin-4-yl}methyl)-2,5-dihydro-1H-pyrrole-2-carboxamide] | 891
O=C(NCc1cc(-c2ccc(C(F)(F)F)cc2)nc(N2CCN(Cc3ccncc3)CC2)c1)[C@@H]1CC(F)(F)CN1S(=O)(=O)c1ccc(F)cc1 [Example 356, 4,4-Difluoro-1-[(4-fluorophenyl)sulfonyl]-N-({2-[4-(pyridin-4-ylmethyl)piperazin-1-yl]-6-[4-(trifluoromethyl)phenyl]pyridin-4-yl}methyl)-L-prolinamide] | > 10000
O=C(NCc1cc(-c2ccc(C(F)(F)F)cc2)nc(N2CCN(c3ccccc3F)CC2)c1)[C@@H]1CC(F)(F)CN1S(=O)(=O)c1ccc(F)cc1 [Example 357, 4,4-Difluoro-N-({2-[4-(2-fluorophenyl)piperazin-1-yl]-6-[4-(trifluoromethyl)phenyl]pyridin-4-yl}methyl)-1-[(4-fluorophenyl)sulfonyl]-L-prolinamide] | > 10000
